Laboratory results taken from patent publication US20150291514A1, “N-Aminosulfonyl Benzamides” (Pfizer Limited, priority 2012, published 2015).
Where a name gives a salt, the structure may show the parent alone.

biological target: T1, Nav1.7 (or SCN9A) channel (Homo sapiens, UniProt Q15858); assay: Nav1.7 (hSCN9A) PatchXpress electrophysiology assay; assay type: cell-based; conditions: estimated IC50 from single point electrophysiology data; PatchXpress platform; HEK cells expressing hSCN9A, held at V1/2 of inactivation; read-out: Nav1.7 EIC50
T1 construct: expressed in transfected cells
T1 sequence (Q15858 whole entry): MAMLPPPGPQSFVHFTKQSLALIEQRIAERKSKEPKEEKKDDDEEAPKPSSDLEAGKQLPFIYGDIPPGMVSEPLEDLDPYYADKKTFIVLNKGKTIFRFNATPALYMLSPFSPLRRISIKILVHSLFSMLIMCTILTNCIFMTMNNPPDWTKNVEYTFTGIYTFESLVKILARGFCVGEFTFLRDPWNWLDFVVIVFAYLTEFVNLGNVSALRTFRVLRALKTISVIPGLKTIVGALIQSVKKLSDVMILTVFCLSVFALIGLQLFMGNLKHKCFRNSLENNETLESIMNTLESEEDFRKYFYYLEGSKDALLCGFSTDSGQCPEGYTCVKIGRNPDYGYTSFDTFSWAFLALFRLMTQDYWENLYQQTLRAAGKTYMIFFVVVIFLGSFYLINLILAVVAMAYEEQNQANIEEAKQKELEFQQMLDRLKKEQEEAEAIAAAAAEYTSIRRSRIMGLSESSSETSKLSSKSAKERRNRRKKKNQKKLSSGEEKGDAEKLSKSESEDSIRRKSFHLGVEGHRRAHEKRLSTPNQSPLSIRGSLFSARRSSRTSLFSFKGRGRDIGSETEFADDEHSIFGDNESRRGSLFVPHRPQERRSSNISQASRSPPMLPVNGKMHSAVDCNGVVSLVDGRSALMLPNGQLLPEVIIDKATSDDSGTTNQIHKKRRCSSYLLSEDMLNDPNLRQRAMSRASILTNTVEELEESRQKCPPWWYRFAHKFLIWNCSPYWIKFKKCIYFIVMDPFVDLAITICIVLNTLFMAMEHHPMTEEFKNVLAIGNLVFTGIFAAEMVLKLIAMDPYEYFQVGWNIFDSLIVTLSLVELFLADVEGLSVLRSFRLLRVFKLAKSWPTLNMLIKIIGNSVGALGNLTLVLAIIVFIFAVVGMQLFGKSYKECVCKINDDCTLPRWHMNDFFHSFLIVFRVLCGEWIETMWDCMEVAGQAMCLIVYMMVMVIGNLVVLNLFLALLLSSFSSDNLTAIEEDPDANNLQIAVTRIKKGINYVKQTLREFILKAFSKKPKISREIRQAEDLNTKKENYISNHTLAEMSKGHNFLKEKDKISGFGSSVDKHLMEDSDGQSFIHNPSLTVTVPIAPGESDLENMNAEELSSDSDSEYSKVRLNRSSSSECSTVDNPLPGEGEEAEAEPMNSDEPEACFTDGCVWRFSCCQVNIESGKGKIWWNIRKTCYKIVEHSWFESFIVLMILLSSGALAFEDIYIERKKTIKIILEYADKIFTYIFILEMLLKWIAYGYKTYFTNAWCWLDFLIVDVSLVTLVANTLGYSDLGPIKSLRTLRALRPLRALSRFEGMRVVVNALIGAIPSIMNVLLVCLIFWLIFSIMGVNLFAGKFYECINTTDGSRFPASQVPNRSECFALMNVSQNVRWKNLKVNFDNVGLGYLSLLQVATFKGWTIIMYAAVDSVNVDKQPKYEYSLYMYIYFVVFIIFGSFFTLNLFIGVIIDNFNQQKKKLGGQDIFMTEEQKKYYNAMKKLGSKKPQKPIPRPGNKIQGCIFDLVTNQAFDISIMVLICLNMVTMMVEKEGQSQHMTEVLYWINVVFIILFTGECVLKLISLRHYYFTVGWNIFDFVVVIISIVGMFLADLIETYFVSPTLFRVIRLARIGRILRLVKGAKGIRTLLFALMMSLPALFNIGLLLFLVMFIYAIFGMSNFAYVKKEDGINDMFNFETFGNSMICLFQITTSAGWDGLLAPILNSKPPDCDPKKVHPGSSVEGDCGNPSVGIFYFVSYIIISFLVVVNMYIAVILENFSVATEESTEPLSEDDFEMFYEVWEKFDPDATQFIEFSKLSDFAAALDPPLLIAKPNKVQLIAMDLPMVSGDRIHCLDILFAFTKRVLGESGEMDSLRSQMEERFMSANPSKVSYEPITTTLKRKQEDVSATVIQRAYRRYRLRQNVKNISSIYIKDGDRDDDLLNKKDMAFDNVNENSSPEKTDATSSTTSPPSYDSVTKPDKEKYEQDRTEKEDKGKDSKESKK
Method: The ability of the compounds of formula (I) to block the Nav1.7 (or SCN9A) channel were measured using the assay described below.
Human Embryonic Kidney (HEK) cells were transfected with an hSCN9A construct using lipofectamine reagent (Invitrogen), using standard techniques. Cells stably expressing the hSCN9A constructs were identified by their resistance to G-418 (400 μg/ml). Clones were screened for expression using the whole-cell voltage-clamp technique.
HEK cells stably transfected with hSCN9A were maintained in DMEM medium supplemented with 10% heat-inactivated fetal bovine serum and 400 μg/ml G-418 in an incubator at 37° C. with a humidified atmosphere of 10% CO2. For HTS, cells were harvested from flasks by trypsinization and replated in an appropriate multi-well plate (typically 96 or 384 wells/plate) such that confluence would be achieved within 24 hours of plating. For electrophysiological studies, cells were removed from the culture flask by brief trypsinization and re-plated at low density onto glass cover slips. Cells were typically used for electrophysiological experiments within 24 to 72 hours after plating.
Cover slips containing HEK cells expressing hSCN9A were placed in a bath on the stage of an inverted microscope and perfused (approximately 1 ml/minutes) with extracellular solution of the following composition: 138 mM NaCl, 2 mM CaCl2, 5.4 mM KCl, 1mM MgCl2, 10 mM glucose, and 10 mM HEPES, pH 7.4, with NaOH. […] The osmolarity of the extracellular and intracellular solutions was 300 mOsm/kg and 295 mOsm/kg, respectively. All recordings were made at room temperature (22-24° C.) using AXOPATCH 200B amplifiers and PCLAMP software (Axon Instruments, Burlingame, Calif.).
hSCN9A currents in HEK cells were measured using the whole-cell configuration of the patch-clamp technique (Hamill et al., 1981). Uncompensated series resistance was typically 2 to 5 mega ohms and >85% series resistance compensation was routinely achieved. As a result, voltage errors were negligible and no correction was applied. Current records were acquired at 20 to 50 KHz and filtered at 5 to 10 KHz.
HEK cells stably transfected with hSCN9A were viewed under Hoffman contrast optics and placed in front of an array of flow pipes emitting either control or compound-containing extracellular solutions. All compounds were dissolved in dimethyl sulfoxide to make 10 mM stock solutions, which were then diluted into extracellular solution to attain the final concentrations desired. […] The voltage-dependence of inactivation was determined by applying a series of depolarizing prepulses (8 sec long in 10 mV increments) from a negative holding potential. The voltage was then immediately stepped to 0 mV to assess the magnitude of the sodium current. Currents elicited at 0 mV were plotted as a function of prepulse potential to allow estimation of the voltage at which 50% of the channels were inactivated (midpoint of inactivation or V1/2). Compounds were tested for their ability to inhibit hSCN9A sodium channels by activating the channel with a 20 msec voltage step to 0 mV following an 8 second conditioning prepulse to the empirically determined V1/2. Compound effect (% inhibition) was determined by difference in current amplitude before and after application of test compounds. For ease of comparison, “estimated IC-50” (EIC50) values were calculated from single point electrophysiology data by the following equation, (tested concentration, uM)×(100-% inhibition/% inhibition). Inhibition values <20% and >80% were excluded from the calculation.
Electrophysiological assays were conducted with PatchXpress 7000 hardware and associated software (Molecular Devices Corp). All assay buffers and solutions were identical to those used in conventional whole-cell voltage clamp experiments described above. hSCN9A cells were grown as above to 50%-80% confluency and harvested by trypsinization. […]

SMILES	IC50 [nM]
O=C(NS(=O)(=O)N1CCC1)c1cc(Cl)c(Oc2cnc(OCC(F)(F)C(F)F)c(Cl)c2)cc1F [Example 41, N-(azetidin-1-ylsulfonyl)-5-chloro-4-{[5-chloro-6-(2,2,3,3-tetrafluoropropoxy)pyridin-3-yl]oxy}-2-fluorobenzamide]	100
CC(C)N(C)c1ncc(Oc2cc(F)c(C(=O)NS(=O)(=O)N(C)C)cc2F)cc1Cl [Example 24, 4-({5-chloro-6-[isopropyl(methyl)amino]pyridine-3-yl}oxy)-N-[(dimethylamino)sulfonyl]-2,5-difluorobenzamide formate salt]	660
CN(C)c1ncc(Oc2cc(F)c(C(=O)NS(=O)(=O)N(C)C)cc2F)cc1Cl [Example 22, 4-{[5-chloro-6-(dimethylamino)pyridine-3-yl]oxy}-N-[(dimethylamino)sulfonyl]-2,5-difluorobenzamide formate salt]	2500
COc1cc(Cl)ccc1Oc1ccc(C(=O)NS(=O)(=O)N(C)C)cc1 [Example 5, 4-(4-chloro-2-methoxyphenoxy)-N-[(dimethylamino)sulfonyl]benzamide]	7100
[2H]C([2H])([2H])C([2H])(Oc1ncc(Oc2cc(F)c(C(=O)NS(=O)(=O)N(C)C)cc2F)cc1Cl)C([2H])([2H])[2H] [Example 17, 4-[(5-chloro-6-isopropoxypyridin-3-yl)oxy]-N-[(dimethylamino)sulfonyl]-2,5-difluorobenzamide-d7]	200
COc1cc(Cl)ccc1Oc1cc(F)c(C(=O)NS(N)(=O)=O)cc1F [Example 6, N-(aminosulfonyl)-4-(4-chloro-2-methoxvphenoxy)-2,5-difluorobenzamide]	7300
CC(C)Oc1ncc(Oc2cc(F)c(C(=O)NS(=O)(=O)N(C)C)cc2F)cc1Cl [Example 30, 4-[(5-chloro-6-isopropoxypyridin-3-yl)oxy]-N-[(dimethylamino)sulfonyl]-2,5-difluorobenzamide]	470
CN(C)S(=O)(=O)NC(=O)c1cc(F)c(Oc2cnc(NC34CC(C3)C4)c(Cl)c2)cc1F [Example 28, 4-{[6-(pyridin[1.1.1]pent-1-ylamino)-5-chloropyridin-3-yl]oxy}-N-[(dimethylamino)sulfonyl]-2,5-difluorobenzamide formate salt]	160
CN(CC1CC1)c1ncc(Oc2cc(F)c(C(=O)NS(=O)(=O)N(C)C)cc2F)cc1Cl [Example 23, 4-({5-chloro-6-[(cyclopropylmethyl)(methyl)amino]pyridine-3-yl}oxy)-N-[(dimethylamino)sulfonyl]-2,5-difluorobenzamide formate salt]	670
CNc1ncc(Oc2cc(F)c(C(=O)NS(=O)(=O)N(C)C)cc2F)cc1Cl [Example 25, 4-{[5-chloro-6-(methylamino)pyridine-3-yl]oxy}-N-[(dimethylamino)sulfonyl]-2,5-difluorobenzamide formate salt]	9800
COc1ccccc1Oc1ccc(C(=O)NS(=O)(=O)N(C)C)cc1 [Example 8, N-[(dimethylamino)sulfonyl]-4-(2-methoxyphenoxy)benzamide diethylamine salt]	> 30000
CN(C)S(=O)(=O)NC(=O)c1cc(F)c(Oc2cnc(OC(C(F)(F)F)C(F)(F)F)c(Cl)c2)cc1F [Example 37]	470
COc1cc(Cl)ccc1Oc1cc(F)c(C(=O)NS(=O)(=O)N(C)C)cc1F [Example 7, 4-(4-chloro-2-methoxvphenoxy)-N-[(dimethylamino)sulfonyl]-2,5-difluorobenzamide]	> 3000
CC(C)COc1ncc(Oc2ccc(C(=O)NS(=O)(=O)N(C)C)cc2)cc1Cl [Example 11, 4-[(5-chloro-6-isobutoxypyridin-3-yl)oxy]-N-[(dimethylamino)sulfonyl]benzamide diethylamine salt]	2100
CN(C)S(=O)(=O)NC(=O)c1cc(F)c(Oc2cnc(N3CCC(F)C3)c(Cl)c2)cc1F (stereo not drawn) [Example 20, 4-{[5-chloro-6-(3-fluoropyrrolidin-1-yl)pyridine-3-yl]oxy}-N-[(dimethylamino)sulfonyl]-2,5-difluorobenzamide formate salt]	1200
COc1cccc(Oc2cc(F)c(C(=O)NS(=O)(=O)N(C)C)cc2F)c1 [Example 14, N-[(dimethylamino)sulfonyl]-2,5-difluoro-4-(3-methoxyphenoxy)benzamide diethylamine salt]	7500
CN(C)S(=O)(=O)NC(=O)c1cc(F)c(Oc2cnc(N3CCCC3)c(Cl)c2)cc1F [Example 26, 4-[(5-chloro-6-pyrrolidin-1-ylpyridin-3-yl)oxy]-N-[(dimethylamino)sulfonyl]-2,5-difluorobenzamide formate salt]	480
CN(C)S(=O)(=O)NC(=O)c1ccc(Oc2ccc(Cl)cc2-c2ccnnc2)cc1 [Example 16, 4-(4-chloro-2-pyridazin-4-ylphenoxy)-N-[(dimethylamino)sulfonyl]benzamide]	4900
CC(C)COc1ncc(Oc2cc(F)c(C(=O)NS(=O)(=O)N(C)C)cc2F)cc1Cl [Example 2, 4-[(5-Chloro-6-isobutoxvpvridin-3yl)oxy]-N-[(dimethylamino)sulfonyl]2,5-difluorobenzamide diethylamine salt]	130
CN(C)S(=O)(=O)NC(=O)c1cc(F)c(Oc2cnc(OCC(C)(C)F)c(Cl)c2)cc1F [Example 33, 4-[(5-chloro-6-(2-fluoro-2-methylpropoxy)pyridin-3-yl)oxy]-N-[(dimethylamino)sulfonyl]-2,5-difluorobenzamide diethylamine salt]	500
CN(C)S(=O)(=O)NC(=O)c1cc(F)c(Oc2cnc(OCC(F)(F)F)c(Cl)c2)cc1F [Example 34, 4-[(5-chloro-6-(2,2,2-trifluoroethoxy)pyridin-3-yl)oxy]-N-[(dimethylamino)sulfonyl]-2,5-difluorobenzamide diethylamine salt]	590
CNS(=O)(=O)NC(=O)c1ccc(Oc2ccc(Cl)c(C(F)(F)F)c2)cc1 [Example 3, 4-[4-chloro-3-(trifluoromethyl)phenoxy]-N-[(methylamino)sulfonyl]benzamide diethylamine salt]	4800
C[C@@H]1CCCN1c1ncc(Oc2cc(F)c(C(=O)NS(=O)(=O)N(C)C)cc2F)cc1Cl [Example 29, 4-({5-chloro-6-[(2R)-2-methylpyrrolidin-1-yl]pyridine-3-yl}oxy)-N-[(dimethylamino)sulfonyl]-2,5-dfluorobenzamide formate salt]	240
CCNS(=O)(=O)NC(=O)c1ccc(Oc2ccccc2-c2ccccc2)c(C#N)c1 [Example 19, 4-(biphenyl-2-yloxy)-3-cyano-N-[(ethylamino)sulfonyl]benzamide diethylamine salt]	10000
